According to patent US10519111B2, “UV absorbing compounds, compositions comprising same and uses thereof” (CORAL SUNSCREEN PTY LTD, priority 2013, dated 2019):
Blank lines part the entries; values can stand above or below the compound they belong to.

Tests used:
[1] = Critical wavelength (λcrit), approximate in-house measurement; format: physicochemical
Description: As the precise test for critical wavelength was unable to be replicated exactly by the inventors due to the need for specialist equipment and a specific calibration of the spectrophotometer, these values are only approximate to a degree. […] This represents a highly useful result and so, compounds based around this benzoyl substitution pattern shown, are especially preferred.

[2] = UV absorption properties (λmax, molar extinction coefficient ε, efficiency E 1%, 1 cm); format: physicochemical
[3] = Table 13B, miscellaneous compounds
[4] = Table 13B, values in order of the λmax values
[5] = Table 13B, values in order of the λmax values, in M-1 cm-1
[6] = Table 7, values in order of the λmax values
[7] = Table 6B, N-tert-butyl compounds

Structure (SMILES): CCCOC(=O)CCC(=O)C1=CN(c2ccc(N3C=C(C(=O)CCC(=O)OCCC)C(C)(C)CC3)cc2)CCC1(C)C
- λcrit ([1]; Table 13B): 377 nm
- λmax [2, 3]: 358 nm
- E (1%, 1 cm) [2, 4]: 820
- ε [2, 5]: 47560

Structure (SMILES): COC(=O)c1cc(Br)ccc1/C=C/C(=O)C1=CN(C(C)(C)C)CCC1(C)C
- λcrit ([1]; Table 13B): 386 nm
- λmax [2, 3]: 362 nm
- E (1%, 1 cm) [2, 4]: 411
- ε [2, 5]: 13489

Structure (SMILES): Cc1cc(/C=C/C(=O)C2=CN(C(C)(C)C)CCC2(C)C)c(C)cc1/C=C/C(=O)C1=CN(C(C)(C)C)CCC1(C)C
- λcrit ([1]; Table 13B): 390 nm
- λmax [2, 3]: 385 nm
- E (1%, 1 cm) [2, 4]: 591
- ε [2, 5]: 32159

Structure (SMILES): CCCCCCC(=O)C1=CN(c2ccc(N3C=C(C(=O)CCCCCC)C(C)(C)CC3)cc2)CCC1(C)C
- λcrit ([1]; Table 13B): 378 nm
- λmax [2, 3]: 359 nm

Structure (SMILES): CCCCCCCCCC(=O)C1=CN(c2ccc(N3C=C(C(=O)CCCCCCCCC)C(C)(C)CC3)cc2)CCC1(C)C
- λcrit ([1]; Table 13B): 378 nm
- λmax [2, 3]: 359 nm
- E (1%, 1 cm) [2, 4]: 898
- ε [2, 5]: 54278

Structure (SMILES): C=CC(=O)C1=CN(C(C)(C)C)CCC1(C)C [drawing 92]
- λcrit ([1]; Table 6B): 360 nm
- E (1%, 1 cm) ([2]; Table 6B): 1127
- λmax [2, 7]: 328 nm
- ε ([2]; Table 6B, in M-1 cm-1): 24907

Structure (SMILES): CC1(C)CCN(C(C)(C)C)C=C1C(=O)/C=C/c1ccc(/C=C/C(=O)C2=CN(C(C)(C)C)CCC2(C)C)cc1
- λcrit ([1]; Table 13B): 390 nm
- λmax [2, 3]: 386 nm
- E (1%, 1 cm) [2, 4]: 705
- ε [2, 5]: 36404

Structure (SMILES): CCCCCCC(=O)C1=CN(c2ccc(N3C=C(C(=O)CC(C)CCC=C(C)C)C(C)(C)CC3)cc2)CCC1(C)C (centres unmarked)
- λcrit ([1]; Table 13B): 378 nm
- λmax [2, 3]: 358 nm
- E (1%, 1 cm) [2, 4]: 934
- ε [2, 5]: 52353

Structure (SMILES): CC1(C)CCN(C(C)(C)C)C=C1C(=O)Nc1ccc(Cc2ccc(NC(=O)C3=CN(C(C)(C)C)CCC3(C)C)cc2)cc1 [drawing 63]
- λcrit ([1]; Table 3): 328 nm
- Ε (1%, 1 cm) ([2]; Table 3): 1105
- λmax ([2]; Table 3, compounds from isocyanates or isothiocyanates): 310 nm
- ε ([2]; Table 3, in M-1 cm-1): 64589

Structure (SMILES): Cc1ccc(N2C=CC(C)(C)C(C(=O)C(F)(F)F)=C2)cc1 [drawing 151]
- λcrit ([1]; Table 10): 393 nm
- E (1%, 1 cm) ([2]; Table 10): 505
- λmax ([2]; Table 10, bis and mono enamine compounds): 388 nm
- ε ([2]; Table 10, in M-1 cm-1): 14911

Structure (SMILES): CC1(C)CCN(C(C)(C)C)C=C1C(=O)N(CCCCN(C(=O)C1=CN(C(C)(C)C)CCC1(C)C)c1ccccc1)c1ccccc1
- λcrit ([1]; Table 13B): 357 nm
- λmax [2, 3]: 312 nm
- E (1%, 1 cm) [2, 4]: 354
- ε [2, 5]: 22166

Structure (SMILES): CC1(C)CCN(C(C)(C)C)C=C1C(=O)c1ccc(N2CCCN(c3ccc(C(=O)C4=CN(C(C)(C)C)CCC4(C)C)cc3)CC2)cc1
- λcrit ([1]; Table 13B): 365 nm

Structure (SMILES): CC(C)CN1C=C(C(=O)CC/C=C/c2ccc(COc3ccc(C(=O)CC(=O)c4ccc(C(C)(C)C)cc4)cc3)cc2)C(C)(C)CC1
- λcrit ([1]; Table 1, covalently coupled compounds): 375 nm

The next lines start with the values.

- λcrit ([1]; Table 8b): 346 nm
- E (1%, 1 cm) ([2]; Table 8b): 793
- λmax ([2]; Table 8b, N-phenyl compounds): 321 nm
- ε ([2]; Table 8b, in M-1 cm-1): 23247
Structure (SMILES): CCC(=O)C1=CN(c2cccc3ccccc23)CCC1(C)C [drawing 137]

- λcrit ([1]; Table 5): 329 nm
- λmax ([2]; Table 5, acylation of N-t-Bu enamine): 313 nm
- Ε (1%, 1 cm) ([2]; Table 5, values in order of the λmax values): 869
- ε ([2]; Table 5, values in order of the λmax values, in M-1 cm-1): 26154
Structure (SMILES): CC1(C)CCN(C(C)(C)C)C=C1C(=O)COc1ccccc1 [drawing 74]

- λcrit ([1]; Table 13B): 346 nm
- λmax [2, 3]: 325 nm
- E (1%, 1 cm) [2, 4]: 608
- ε [2, 5]: 42215
Structure (SMILES): Cc1ccc(N2C=C(C(=O)N(CCCCN(C(=O)C3=CN(c4ccc(C)cc4)CCC3(C)C)c3ccccc3)c3ccccc3)C(C)(C)CC2)cc1

- λcrit ([1]; Table 7): 383 nm
- λmax ([2]; Table 7, unsaturated compounds): 360 nm
- E (1%, 1 cm) [2, 6]: 533
- ε [2, 6]: 16000 M⁻¹ cm⁻¹
Structure (SMILES): CC(C)CN1C=C(C(=O)/C=C/c2ccccc2)C(C)(C)CC1 [drawing 111]

- λcrit ([1]; Table 11): 356 nm
- E (1%, 1 cm) ([2]; Table 11): 407
- λmax ([2]; Table 11, compounds from mixed anhydrides): 337 nm
- ε ([2]; Table 11, in M-1 cm-1): 17793
Structure (SMILES): CC1(C)CCN(c2ccc(C(C)(C)C)cc2)C=C1C(=O)C(c1ccccc1)c1ccccc1 [drawing 157]

- λcrit ([1]; Table 8a): 366 nm
- E (1%, 1 cm) ([2]; Table 8a): 629
- ε ([2]; Table 8a): 23300 M⁻¹ cm⁻¹
- λmax ([2]; Table 8a, N-phenyl compounds): 338 nm
Structure (SMILES): CC1(C)CCN(c2ccccc2)C=C1C(=O)c1ccc(Br)cc1 [drawing 124]

- λcrit ([1]; Table 6B): 347 nm
- E (1%, 1 cm) ([2]; Table 6B): 785
- λmax [2, 7]: 317 nm
- ε ([2]; Table 6B, in M-1 cm-1): 27506
Structure (SMILES): CC1(C)CCN(C(C)(C)C)C=C1C(=O)c1ccc(Br)cc1 [drawing 94]

- λcrit ([1]; Table 8b): 350 nm
- E (1%, 1 cm) ([2]; Table 8b): 1008
- λmax ([2]; Table 8b, N-phenyl compounds): 334 nm
- ε ([2]; Table 8b, in M-1 cm-1): 33786
Structure (SMILES): COc1ccc(N2C=C(C(=O)Cc3ccccc3)C(C)(C)CC2)cc1 [drawing 133]

- λcrit ([1]; Table 8b): 348 nm
- E (1%, 1 cm) ([2]; Table 8b): 1347
- λmax ([2]; Table 8b, N-phenyl compounds): 327 nm
- ε ([2]; Table 8b, in M-1 cm-1): 34608
Structure (SMILES): CCC(=O)C1=CN(c2ccc(C)cc2)CCC1(C)C [drawing 135]
